IC50 data for 16 compounds are collected here from patent publication US20260274833A1 (NiKang Therapeutics, Inc., priority 2022, published 2026).

In general, IC50 refers to the concentration at which inhibition is half-maximal.

This experiment has as its target T1, CDK2 (Homo sapiens, UniProt P24941).
T1 construct: endogenous in cells; host or cells: OVCAR3 cells
In words: Phospho-RB measurement in OVCAR3 cells (HTRF phospho-RB cellular kit). The class given is cell-based. To be noted: inhibition of RB phosphorylation at S807/811 (HTRF, TR-FRET ratio 665/620), 24 h compound treatment, 0.3 to 10,000 nM. The method, then: Biological Example 1: Phospho-RB Measurement in OVCAR3 Cells
The ability of compounds of Formula (I) to inhibit CDK2 was determined in OVCAR3 cells by measuring inhibition of phosphorylation of RB protein at S780 and S807/811. Phosphorylation of RB protein at S807/811 were measured using HTRF phospho-RB cellular kits (Cat #64RBS807PEG) from Cisbio.
On Day 1, OVCAR3 cells were seeded into 96-well tissue-culture treated plates at 20,000 cells/well in 200 μL and incubated overnight at 37° C. in CO2 atmosphere. On Day 2, the cells were treated with test compounds at concentrations from 0.3 to 10,000 nM using HP D300 digital dispenser. Twenty-four hours after compound treatment, cell culture media was removed by flicking the plate and tapping the plate against clean paper towel. Immediately 30 μL 1× lysis buffer was supplemented from the kit and the plate was incubated at room temperature on shaker for 30 min. After homogenization by pipetting up and down, 8 μL cell lysate from 96-well cell culture plate was transferred to 384-well small volume white detection plate. 2 μL premixed detection solution was added and the plate was covered with sealer. To prepare the detection solution, d2 conjugated-phospho-RB antibody and Eu-cryptate conjugated phosphor-RB antibody were diluted into detection buffer following manufacturer's instruction.
Detection plates were incubated for 4 h at room temperature and read on ClarioStar (BMG Labtech) in TR-FRET mode ([…]). The TR-FRET ratio (665 nM/620 nM) was plotted against the compound concentration and normalized to DMSO controls. Half maximal inhibition concentration (IC50) values are calculated with a four-parameter logistic fit using GraphPad Prism (version 8; La Jolla, CA).
(In general: In TR-FRET formats the signal depends on donor and acceptor labels being close together.)
For `O=S1(=O)CC2(CC(Nc3nccc(-c4sc(N5C6CCC5CN(CC(F)(F)F)C6)nc4-c4cccc(NS(=O)(=O)N5CCc6ccccc65)c4F)n3)C2)C1` [Example 38, N-(3-(5-(2-((2,2-dioxido-2-thiaspiro-[3.3]-heptan-6-yl)amino)pyrimidin-4-yl)-2-(3-(2,2,2-trifluoroethyl)-3,8-diazabicyclo[3.2.1]-octan-8-yl)thiazol-4-yl)-2-fluorophenyl)-indoline-1-sulfonamide], the half-inhibitory concentration (IC50) is 0.263 µM.

For the compound `CC(C)(C)c1nc(-c2cccc(NS(=O)(=O)N3CCc4ccccc43)c2F)c(-c2ccnc(NC3CCN(S(=O)(=O)N4CCNCC4)CC3)n2)s1` [Example 158, N-(3-(2-(tert-butyl)-5-(2-((1-(piperazin-1-ylsulfonyl)piperidin-4-yl)amino)-pyrimidin-4-yl)thiazol-4-yl)-2-fluoro-phenyl)indoline-1-sulfonamide], the IC50 came out at 0.0996 µM.

For `CC(C)(C)c1nc(-c2cccc(NS(=O)(=O)N3Cc4cccc(-c5ccccc5)c4C3)c2F)c(-c2ccnc(NC3CCN(S(C)(=O)=O)CC3)n2)s1` [Example 224, N-(3-(2-(tert-butyl)-5-(2-((1-(methylsulfonyl)-piperidin-4-yl)amino)-pyrimidin-4-yl)thiazol-4-yl)-2-fluoro-phenyl)-4-phenylisoindoline-2-sulfonamide], the IC50 was determined as 0.3 µM.

Regarding `COCCN1CCN(c2ccc(Nc3nccc(-c4sc(C(C)(C)C)nc4-c4cccc(NS(=O)(=O)N5CCc6ccc(C#N)cc65)c4F)n3)cc2)CC1` [Example 233, N-(3-(2-(tert-butyl)-5-(2-((4-(4-(2-methoxy-ethyl)piperazin-1-yl)phenyl)-amino)-pyrimidin-4-yl)thiazol-4-yl)-2-fluorophenyl)-6-cyanoindoline-1-sulfonamide], the IC50 turned out to be 0.765 µM.

Regarding `CC(C)(C)OC(=O)N1CCN(S(=O)(=O)Nc2cccc(-c3nc(C(C)(C)C)sc3-c3ccnc(NC4CCN(S(C)(=O)=O)CC4)n3)c2F)c2ccccc21` [Example 101, tert-butyl 4-(N-(3-(2-(tert-butyl)-5-(2-((1-(methylsulfonyl)piperidin-4-yl)amino)-pyrimidin-4-yl)thiazol-4-yl)-2-fluorophenyl)-sulfamoyl)-3,4-dihydroquinoxaline-1(2H)-carboxylate], the IC50 came out at 1.83 µM.

`COc1cccc2c1CN(S(=O)(=O)Nc1cccc(-c3nc(C(C)(C)C)sc3-c3ccnc(NC4CCN(S(=O)(=O)N5CCNCC5)CC4)n3)c1F)C2` [Example 143, N-(3-(2-(tert-butyl)-S-(2-((1-(piperazin-1-ylsulfonyl)piperidin-4-yl)amino)-pyrimidin-4-yl)thiazol-4-yl)-2-fluoro-phenyl)-4-methoxy-isoindoline-2-sulfonamide]: the 50% inhibitory concentration (IC50) came out at 0.136 µM.

For the compound `CN(C)CCOc1cccc2c1CN(S(=O)(=O)Nc1cccc(-c3nc(C(C)(C)C)sc3-c3ccnc(NC4CCN(S(C)(=O)=O)CC4)n3)c1F)C2` [Example 150, N-(3-(2-(tert-butyl)-5-(2-((1-(methylsulfonyl)piperidin-4-yl)amino)-pyrimidin-4-yl)thiazol-4-yl)-2-fluoro-phenyl)-4-(2-(dimethylamino)-ethoxy)-isoindoline-2-sulfonamide], the IC50 came out at 1.84 µM.

As to `CN1CCN(S(=O)(=O)N2CCC(Nc3nccc(-c4sc(C(C)(C)C)nc4-c4cccc(NS(=O)(=O)N(C)C5CC5)c4F)n3)CC2)CC1` [Example 112, N-(3-(2-(tert-butyl)-5-(2-((1-((4-methylpiperazin-1-yl)sulfonyl)piperidin-4-yl)amino)pyrimidin-4-yl)thiazol-4-yl)-2-fluorophenyl)-(N-methyl-N-cyclopropylamine)-sulfonamide], the IC50 was determined as 1.21 µM.

As to `O=S1(=O)CC2(CC(Nc3nccc(-c4sc(N5C6CCC5CN(CC(F)(F)F)C6)nc4-c4cccc(NS(=O)(=O)N5CCc6ccc(C(F)(F)F)cc65)c4F)n3)C2)C1` [Example 39, N-(3-(5-(2-((2,2-dioxido-2-thiaspiro-[3.3]-heptan-6-yl)amino)pyrimidin-4-yl)-2-(3-(2,2,2-trifluoroethyl)-3,8-diazabicyclo[3.2.1]-octan-8-yl)thiazol-4-yl)-2-fluorophenyl)-6-(trifluoromethyl)-indoline-1-sulfonamide], the IC50 came out at 0.752 µM.

As to `CC(C)(C)c1nc(-c2cccc(NS(=O)(=O)N3Cc4ccc(F)cc4C3)c2F)c(-c2ccnc(NC3CCN(S(=O)(=O)N4CCNCC4)CC3)n2)s1` [Example 144, N-(3-(2-(tert-butyl)-5-(2-((1-(piperazin-1-ylsulfonyl)piperidin-4-yl)amino)-pyrimidin-4-yl)thiazol-4-yl)-2-fluoro-phenyl)-5-fluoro-isoindoline-2-sulfonamide], the IC50 is 0.227 µM.

With `CN1CC2CCC(C1)N2c1nc(-c2cccc(NS(=O)(=O)N3CCc4ccc(C(F)(F)F)cc43)c2F)c(-c2ccnc(NC3CC4(C3)CS(=O)(=O)C4)n2)s1` [Example 44, N-(3-(5-(2-((2,2-dioxido-2-thiaspiro-[3.3]heptan-6-yl)amino)pyrimidin-4-yl)-2-(3-methyl-3,8-diazabicyclo[3.2.1]-octan-8-yl)thiazol-4-yl)-2-fluorophenyl)-6-(trifluoromethyl) indoline-1-sulfonamide], the half-maximal inhibitory concentration (IC50) worked out at 0.056 µM.

`CS(=O)(=O)C1CCC(Nc2nccc(-c3sc(C45CC(C(F)(F)F)(C4)C5)nc3-c3cccc(NS(=O)(=O)N4Cc5cccc(C(F)F)c5C4)c3F)n2)CC1` (stereo not shown) [Example 58, 4-(difluoromethyl)-N-(2-fluoro-3-(5-(2-(((1r,4r)-4-(methylsulfonyl)cyclohexyl)-amino)pyrimidin-4-yl)-2-(3-(trifluoromethyl)-bicyclo[1.1.1]pentan-1-yl)thiazol-4-yl)phenyl)-isoindoline-2-sulfonamide]: the IC50 was 0.285 µM.

For `CS(=O)(=O)[C@H]1CC[C@H](Nc2nccc(-c3sc(C45CC(C(F)(F)F)(C4)C5)nc3-c3cccc(NS(=O)(=O)N4CCc5ccccc54)c3F)n2)CC1` [Example 53], the half-maximal inhibitory concentration (IC50) stood at 0.262 µM.

`CC(C)(C)c1nc(-c2cccc(NS(=O)(=O)N3CCc4ccccc43)c2F)c(-c2ccnc(NC3CCN(S(C)(=O)=O)CC3)n2)s1` [Example 73, N-(3-(2-(tert-butyl)-5-(2-((1-(methylsulfonyl)-piperidin-4-yl)amino)-pyrimidin-4-yl)thiazol-4-yl)-2-fluoro-phenyl)indoline-1-sulfonamide]: the IC50 stood at 0.058 µM.

With `CC(C)(C)c1nc(-c2cccc(NS(=O)(=O)N3CCn4cncc4C3)c2F)c(-c2ccnc(NC3CCN(S(C)(=O)=O)CC3)n2)s1` [Example 83, N-(3-(2-(tert-butyl)-5-(2-((1-(methylsulfonyl)-piperidin-4-yl)amino)-pyrimidin-4-yl)thiazol-4-yl)-2-fluoro-phenyl)-5,6-dihydroimidazo [1,5-a]-pyrazine-7 (8H)-sulfonamide], the IC50 is 1.47 µM.

With `CNS(=O)(=O)N1CCC(Nc2nccc(-c3sc(C(C)(C)C)nc3-c3cccc(NS(=O)(=O)N4CCc5ccc(C#N)cc54)c3F)n2)CC1` [Example 183, N-(3-(2-(tert-butyl)-5-(2-((1-(N-methyl-sulfamoyl)piperidin-4-yl)amino)-pyrimidin-4-yl)thiazol-4-yl)-2~fluoro-phenyl)-6-cyano-indoline-1-sulfonamide], the IC50 was determined as 0.133 µM.
